Results taken from paper PMC5908784, “Extracellular loops 2 and 3 of the calcitonin receptor selectively modify agonist binding and efficacy” (Biochemical Pharmacology, 2018).
Where a chain is given by its changes, count along the chain named. Where a SMILES comes first, the peptide text is derived from it. Bridges are numbered along the chain shown (N, C = ends).

Experiments:
Experiment in all cases: IP1 accumulation
Type in all cases: cell-based
Conditions in all cases: mean ± S.E.M.; for Emax: IP1 maximal response, SEM
[1] = target: T1, hCTR N288A (Homo sapiens, UniProt P30988, N288A)
T1 construct: expressed in transfected cells
T1 sequence (P30988 25-474 N288A): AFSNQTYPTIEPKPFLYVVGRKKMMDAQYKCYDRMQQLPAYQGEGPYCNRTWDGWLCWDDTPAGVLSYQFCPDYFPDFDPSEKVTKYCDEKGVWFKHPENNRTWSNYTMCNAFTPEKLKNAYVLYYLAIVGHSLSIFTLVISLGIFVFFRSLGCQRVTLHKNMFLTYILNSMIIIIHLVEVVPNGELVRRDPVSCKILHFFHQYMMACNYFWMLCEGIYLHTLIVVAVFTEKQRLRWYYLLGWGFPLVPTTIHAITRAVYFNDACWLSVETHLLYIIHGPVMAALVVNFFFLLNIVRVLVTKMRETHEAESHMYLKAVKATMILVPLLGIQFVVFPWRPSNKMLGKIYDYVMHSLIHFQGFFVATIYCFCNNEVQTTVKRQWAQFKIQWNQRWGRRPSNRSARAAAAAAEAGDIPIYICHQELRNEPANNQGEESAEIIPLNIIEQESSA
How it was run: (§1)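 HTRF IP-One readout of IP1 after 60 min ligand stimulation (LiCl present), cells seeded overnight. Normalized to 100 μM ATP max response. EC50/Emax via 3-parameter logistic curve fit.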

[2] = target: T2, hCTR T280A (Homo sapiens, UniProt P30988, T280A)
T2 construct: expressed in transfected cells
T2 sequence (P30988 25-474 T280A): T1 sequence (P30988 25-474 N288A) with T256A, A264N
How it was run: as §1

[3] = target: T3, hCTR V358A (Homo sapiens, UniProt P30988, V358A)
T3 construct: c-Myc (N); expressed in transfected cells
T3 sequence (P30988 25-474 V358A): T1 sequence (P30988 25-474 N288A) with A264N, V334A
How it was run: as §1

[4] = target: T4, hCTR P360A (Homo sapiens, UniProt P30988, P360A)
T4 construct: expressed in transfected cells
T4 sequence (P30988 25-474 P360A): T1 sequence (P30988 25-474 N288A) with A264N, P336A
How it was run: as §1

[5] = target: T5, hCTR V357A (Homo sapiens, UniProt P30988, V357A)
T5 construct: c-Myc (N); expressed in transfected cells
T5 sequence (P30988 25-474 V357A): T1 sequence (P30988 25-474 N288A) with A264N, V333A
How it was run: as §1

[6] = IP1, CV1-FlpIn cells, 60 min, LiCl

EC50 [1, 6] [nM]	EC50 [2, 6] [nM]	EC50 [3, 6] [nM]	EC50 [4, 6] [nM]	EC50 [5, 6] [nM]	SMILES	Emax [1] [%]	Emax [2] [%]	Emax [3] [%]	Emax [4] [%]	Emax [5] [%]
–	–	–	–	–	CC[C@H](C)[C@H](NC(=O)[C@H](C)NC(=O)[C@@H](NC(=O)[C@H](CCC(N)=O)NC(=O)[C@@H]1CCCN1C(=O)[C@H](Cc1ccccc1)NC(=O)[C@@H](NC(=O)[C@H](Cc1c[nH]cn1)NC(=O)[C@H](Cc1ccccc1)NC(=O)[C@H](CCCCN)NC(=O)[C@H](CC(N)=O)NC(=O)[C@H](Cc1ccccc1)NC(=O)[C@H](CC(=O)O)NC(=O)[C@H](CCC(N)=O)NC(=O)[C@@H](NC(=O)[C@H](Cc1ccc(O)cc1)NC(=O)[C@@H](NC(=O)CNC(=O)[C@H](CC(C)C)NC(=O)[C@H](CCSC)NC(=O)[C@@H]1CSSC[C@H](N)C(=O)NCC(=O)N[C@@H](CC(N)=O)C(=O)N[C@@H](CC(C)C)C(=O)N[C@@H](CO)C(=O)N[C@@H]([C@@H](C)O)C(=O)N1)[C@@H](C)O)[C@@H](C)O)[C@@H](C)O)[C@@H](C)O)C(=O)NCC(=O)N[C@H](C(=O)NCC(=O)N[C@@H](C)C(=O)N1CCC[C@H]1C(N)=O)C(C)C [hCT]	91 ± 8	79 ± 6	126 ± 9	95 ± 8	50 ± 4
1.91	2.45	3.31	85.1	15.5	CSCC[C@H](NC(=O)CNC(=O)[C@H](CO)NC(=O)[C@H](Cc1ccccc1)NC(=O)[C@H](CCCNC(=N)N)NC(=O)[C@H](Cc1c[nH]cn1)NC(=O)[C@H](Cc1ccccc1)NC(=O)[C@H](CC(N)=O)NC(=O)[C@H](CC(N)=O)NC(=O)[C@H](CC(C)C)NC(=O)[C@H](CC(N)=O)NC(=O)[C@H](CCCNC(=N)N)NC(=O)[C@H](Cc1c[nH]c2ccccc12)NC(=O)[C@H](Cc1ccc(O)cc1)NC(=O)[C@H](C)NC(=O)[C@H](CO)NC(=O)[C@H](CC(C)C)NC(=O)[C@@H](NC(=O)[C@@H]1CSSC[C@H](N)C(=O)N[C@@H](CO)C(=O)N[C@@H](CC(N)=O)C(=O)N[C@@H](CC(C)C)C(=O)N[C@@H](CO)C(=O)N[C@@H]([C@@H](C)O)C(=O)N1)C(C)C)C(=O)NCC(=O)N[C@@H](Cc1ccccc1)C(=O)NCC(=O)N1CCC[C@H]1C(=O)N[C@@H](CCC(=O)O)C(=O)N[C@H](C(=O)N1CCC[C@H]1C(N)=O)[C@@H](C)O [pCT] (H-CSNLSTCVLSAYWRNLNNFHRFSGMGFGPETP-NH2; disulfide 1-7)	93 ± 7	100 ± 6	73 ± 6	107 ± 12	48 ± 4
–	–	–	–	–	CC(C)C[C@H](NC(=O)[C@H](CCCCN)NC(=O)CNC(=O)[C@H](CC(C)C)NC(=O)[C@@H](NC(=O)[C@@H]1CSSC[C@H](N)C(=O)N[C@@H](CO)C(=O)N[C@@H](CC(N)=O)C(=O)N[C@@H](CC(C)C)C(=O)N[C@@H](CO)C(=O)N[C@@H]([C@@H](C)O)C(=O)N1)C(C)C)C(=O)N[C@@H](CO)C(=O)N[C@@H](CCC(N)=O)C(=O)N[C@@H](CCC(=O)O)C(=O)N[C@@H](CC(C)C)C(=O)N[C@@H](Cc1c[nH]cn1)C(=O)N[C@@H](CCCCN)C(=O)N[C@@H](CC(C)C)C(=O)N[C@@H](CCC(N)=O)C(=O)N[C@H](C(=O)N[C@@H](Cc1ccc(O)cc1)C(=O)N1CCC[C@H]1C(=O)N[C@@H](CCCNC(=N)N)C(=O)N[C@H](C(=O)N[C@@H](CC(N)=O)C(=O)N[C@H](C(=O)NCC(=O)N[C@@H](CO)C(=O)NCC(=O)N[C@H](C(=O)N1CCC[C@H]1C(N)=O)[C@@H](C)O)[C@@H](C)O)[C@@H](C)O)[C@@H](C)O [sCT]	119 ± 6	119 ± 5	123 ± 6	144 ± 5	39 ± 3
